SMILES strings stand for the structures.

In BindingDB's records for patent US20250034165 (Chia Tai Tianqing Pharmaceutical Group, 2025) one finds IC50 data, which are given here for 2 compounds.

Assay [1] addresses Epidermal growth factor receptor (Homo sapiens, UniProt P00533). As to the kind of experiment: Inhibitory Activity for EGFR (WT) Kinase. The protocol:
A 50 ng/μL EGFR (WT, Carna) stock solution was diluted with a kinase buffer (50 mM HEPES, 10 mM MgCl2, 2 mM DTT, 1 mM EGTA, 0.01% Tween 20), and 6 μL of 1.67× working solution at 0.005 ng/μL (final concentration: 0.003 ng/μL) was added to each well. Different compounds dissolved in DMSO were added to the wells using a nanoliter pipettor, resulting in the final concentrations of the compounds of 100 nM to 0.0244 nM (4-fold gradient for 7 concentrations in total), and blank control wells (without enzyme) and negative control wells (with enzyme, plus vehicle DMSO) were set, 2 replicate wells for each concentration. After enzyme was reacted with the compound or vehicle for 30 min, 5×ATP at 25 μM (final concentration: 5 μM, Sigma) prepared with a kinase buffer was mixed with 5× substrate at 0.5 μM (final concentration: 0.1 μM, ULight-poly GT, PerkinElmer) at a ratio of 1:1 (v:v), and the mixture was added to each well at 4 μL/well. After being sealed with a film, the plate was incubated at room temperature for 2 h, and then 5 μL of 4×EDTA at 40 mM (final concentration: 10 mM) was added to each well. After the plate was incubated for 5 min at room temperature, 5 μL of 4× detection reagent at 8 nM (final concentration: 2 nM, Eu-anti-phospho-tyrosine antibody, PerkinElmer) was added to each well.

For assay [2], the target named is Epidermal growth factor receptor [T790M,L858R] (Homo sapiens, UniProt P00533, L858R/T790M). As to the kind of experiment: Inhibitory Activity for EGFR (L858R/T790M) Kinase. The method in brief:
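Recombinant EGFR L858R/T790M (0.0025 ng/μL final) pre-incubated 30 min with compound (10–0.0024 nM, 7 points) in HEPES/MgCl2/DTT buffer. Reaction run 2 h at room temperature with 5 μM ATP and 0.1 μM ULight-poly GT, then stopped with EDTA. Eu-anti-phosphotyrosine TR-FRET read; IC50 from four-parameter fit.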

For assay [3], the target named is Epidermal growth factor receptor [T790M,C797S,L858R] (UniProt P00533, C797S/L858R/T790M). As to the kind of experiment: Inhibitory Activity for EGFR (L858R/T790M/C797S) Kinase. The method in brief: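 Triple-mutant enzyme (0.001 ng/μL final) preincubated 30 min with compound (10 nM–0.0024 nM), then reacted 2 h at room temperature with 5 μM ATP and 0.1 μM ULight-poly GT. Stopped with EDTA, detected by Eu-anti-phospho-tyrosine TR-FRET; IC50 by four-parameter fit.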
Sequence of Epidermal growth factor receptor [T790M,C797S,L858R] (P00533 25-1210 T790M/C797S/L858R limits assumed): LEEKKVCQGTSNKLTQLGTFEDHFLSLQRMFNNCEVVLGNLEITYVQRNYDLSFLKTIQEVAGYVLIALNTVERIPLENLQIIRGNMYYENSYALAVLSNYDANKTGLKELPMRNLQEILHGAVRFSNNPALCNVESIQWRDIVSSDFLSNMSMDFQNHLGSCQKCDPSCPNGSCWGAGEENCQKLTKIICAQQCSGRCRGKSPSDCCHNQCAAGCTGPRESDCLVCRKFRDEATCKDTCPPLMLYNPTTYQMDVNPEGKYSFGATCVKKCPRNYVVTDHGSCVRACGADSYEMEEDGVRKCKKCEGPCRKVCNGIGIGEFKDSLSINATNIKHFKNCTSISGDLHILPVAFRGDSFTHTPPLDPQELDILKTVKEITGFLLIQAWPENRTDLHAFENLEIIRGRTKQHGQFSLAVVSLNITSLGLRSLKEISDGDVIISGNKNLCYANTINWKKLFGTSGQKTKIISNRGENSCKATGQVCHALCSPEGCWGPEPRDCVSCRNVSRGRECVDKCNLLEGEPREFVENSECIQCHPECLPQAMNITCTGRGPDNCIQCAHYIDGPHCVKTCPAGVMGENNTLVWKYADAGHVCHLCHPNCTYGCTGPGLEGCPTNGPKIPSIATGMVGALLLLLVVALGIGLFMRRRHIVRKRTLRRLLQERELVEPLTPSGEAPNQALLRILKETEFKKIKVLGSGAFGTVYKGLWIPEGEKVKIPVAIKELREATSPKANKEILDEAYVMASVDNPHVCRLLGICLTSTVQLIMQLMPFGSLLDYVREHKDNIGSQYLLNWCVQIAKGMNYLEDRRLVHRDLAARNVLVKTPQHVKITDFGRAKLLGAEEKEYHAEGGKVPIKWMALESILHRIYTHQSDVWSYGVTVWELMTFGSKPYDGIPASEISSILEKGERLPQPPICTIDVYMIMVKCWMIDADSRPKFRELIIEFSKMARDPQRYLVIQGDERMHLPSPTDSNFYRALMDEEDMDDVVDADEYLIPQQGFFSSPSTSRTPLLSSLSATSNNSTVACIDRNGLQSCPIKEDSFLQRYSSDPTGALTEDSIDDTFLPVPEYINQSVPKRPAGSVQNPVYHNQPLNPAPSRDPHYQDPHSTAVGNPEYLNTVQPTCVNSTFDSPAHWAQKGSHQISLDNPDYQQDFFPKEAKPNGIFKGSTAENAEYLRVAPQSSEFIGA

Sequence of Epidermal growth factor receptor [T790M,L858R] (P00533 25-1210 T790M/L858R limits assumed): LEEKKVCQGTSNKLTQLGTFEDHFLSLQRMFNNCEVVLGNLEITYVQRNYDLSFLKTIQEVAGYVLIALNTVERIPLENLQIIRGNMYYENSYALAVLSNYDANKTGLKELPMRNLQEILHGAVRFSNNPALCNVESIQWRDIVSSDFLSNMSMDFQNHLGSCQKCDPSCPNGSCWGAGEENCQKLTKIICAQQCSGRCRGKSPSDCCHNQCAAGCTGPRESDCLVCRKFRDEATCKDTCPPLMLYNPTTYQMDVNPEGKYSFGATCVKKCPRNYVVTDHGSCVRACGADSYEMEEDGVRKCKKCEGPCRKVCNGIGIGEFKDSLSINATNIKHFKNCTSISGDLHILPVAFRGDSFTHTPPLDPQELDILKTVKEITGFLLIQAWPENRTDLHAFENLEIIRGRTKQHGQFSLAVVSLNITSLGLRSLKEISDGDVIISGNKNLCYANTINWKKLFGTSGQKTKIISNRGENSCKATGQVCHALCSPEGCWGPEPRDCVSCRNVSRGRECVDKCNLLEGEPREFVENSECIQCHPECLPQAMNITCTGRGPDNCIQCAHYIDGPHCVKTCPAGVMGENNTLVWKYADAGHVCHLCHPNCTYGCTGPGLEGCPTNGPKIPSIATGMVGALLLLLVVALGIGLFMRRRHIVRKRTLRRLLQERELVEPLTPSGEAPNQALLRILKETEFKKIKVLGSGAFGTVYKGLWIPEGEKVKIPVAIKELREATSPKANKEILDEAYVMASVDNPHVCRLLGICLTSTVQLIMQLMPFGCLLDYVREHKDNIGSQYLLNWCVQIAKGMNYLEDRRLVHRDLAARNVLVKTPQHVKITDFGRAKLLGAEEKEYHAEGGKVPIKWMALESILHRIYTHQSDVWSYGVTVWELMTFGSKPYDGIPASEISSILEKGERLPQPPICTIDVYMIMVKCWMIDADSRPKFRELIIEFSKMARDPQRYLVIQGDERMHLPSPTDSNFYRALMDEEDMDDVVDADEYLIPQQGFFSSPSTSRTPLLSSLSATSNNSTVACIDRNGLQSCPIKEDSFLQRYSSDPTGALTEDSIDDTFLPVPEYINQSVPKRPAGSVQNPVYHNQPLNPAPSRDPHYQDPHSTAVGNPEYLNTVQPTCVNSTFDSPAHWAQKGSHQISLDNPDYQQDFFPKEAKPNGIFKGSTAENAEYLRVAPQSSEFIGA
Sequence of Epidermal growth factor receptor (P00533 whole entry): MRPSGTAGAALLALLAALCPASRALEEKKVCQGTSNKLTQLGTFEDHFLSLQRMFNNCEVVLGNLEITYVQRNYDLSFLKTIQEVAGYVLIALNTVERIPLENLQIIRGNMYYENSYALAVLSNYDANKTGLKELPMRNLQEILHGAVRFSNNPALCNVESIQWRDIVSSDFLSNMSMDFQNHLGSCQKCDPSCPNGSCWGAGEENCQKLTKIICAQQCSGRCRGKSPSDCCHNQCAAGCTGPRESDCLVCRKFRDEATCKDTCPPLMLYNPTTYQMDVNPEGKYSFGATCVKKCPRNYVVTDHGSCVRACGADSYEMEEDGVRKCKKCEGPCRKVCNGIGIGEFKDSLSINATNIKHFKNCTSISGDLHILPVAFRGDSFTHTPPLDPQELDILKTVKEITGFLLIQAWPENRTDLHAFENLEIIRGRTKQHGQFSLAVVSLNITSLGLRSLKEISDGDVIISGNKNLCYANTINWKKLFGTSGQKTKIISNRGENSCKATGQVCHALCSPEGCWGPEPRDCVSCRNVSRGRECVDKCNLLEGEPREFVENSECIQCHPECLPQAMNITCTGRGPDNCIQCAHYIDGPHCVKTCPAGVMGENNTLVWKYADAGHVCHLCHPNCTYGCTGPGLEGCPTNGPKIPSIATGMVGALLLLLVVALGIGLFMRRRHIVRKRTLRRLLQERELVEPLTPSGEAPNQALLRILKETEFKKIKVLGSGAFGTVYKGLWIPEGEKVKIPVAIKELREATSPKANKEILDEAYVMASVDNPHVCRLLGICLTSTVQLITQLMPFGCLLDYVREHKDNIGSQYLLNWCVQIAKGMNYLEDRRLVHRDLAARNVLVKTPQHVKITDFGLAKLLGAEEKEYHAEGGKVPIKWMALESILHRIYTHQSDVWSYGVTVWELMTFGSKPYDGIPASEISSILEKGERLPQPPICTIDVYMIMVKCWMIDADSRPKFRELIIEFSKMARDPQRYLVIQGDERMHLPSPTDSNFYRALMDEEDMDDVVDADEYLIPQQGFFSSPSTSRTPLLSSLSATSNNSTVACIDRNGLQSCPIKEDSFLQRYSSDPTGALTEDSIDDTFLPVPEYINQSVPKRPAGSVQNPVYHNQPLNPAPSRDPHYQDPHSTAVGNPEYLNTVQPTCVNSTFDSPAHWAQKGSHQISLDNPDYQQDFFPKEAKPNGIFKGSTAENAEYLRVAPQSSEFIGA

Regarding `CNCCCNc1ccc2c(c1)N/C1=N\C(=O)c3cc(C)nc(c3)-c3cnn(C)c3OCCC[C@@H](C3CC3)CN12` [US20250034165, Example 49], the IC50 (as a rule, the midpoint of a concentration-inhibition curve) in assay [1] was 2.2 nM; in assay [2], 0.048 nM; in assay [3], 0.051 nM.
In the same order, the values of `CNCCCCNc1ccc2c(c1)N/C1=N/C(=O)c3cc(C)nc(c3)-c3cnn(C)c3OCCC[C@@H](C3CC3)CN12` [US20250034165, Example 52] are 0.57 nM, 0.026 nM and 0.035 nM.
